Drawing on ChEMBL document CHEMBL1129292, “Theoretical study of inhibition of adenosine deaminase by (8R)-coformycin and (8R)-deoxycoformycin” (J Med Chem, 1996), this text covers Ki for two compounds.

Structures are written as SMILES.

The assay addresses T1, Adenosine deaminase (Homo sapiens, UniProt P00813).
T1 sequence (P00813 whole entry): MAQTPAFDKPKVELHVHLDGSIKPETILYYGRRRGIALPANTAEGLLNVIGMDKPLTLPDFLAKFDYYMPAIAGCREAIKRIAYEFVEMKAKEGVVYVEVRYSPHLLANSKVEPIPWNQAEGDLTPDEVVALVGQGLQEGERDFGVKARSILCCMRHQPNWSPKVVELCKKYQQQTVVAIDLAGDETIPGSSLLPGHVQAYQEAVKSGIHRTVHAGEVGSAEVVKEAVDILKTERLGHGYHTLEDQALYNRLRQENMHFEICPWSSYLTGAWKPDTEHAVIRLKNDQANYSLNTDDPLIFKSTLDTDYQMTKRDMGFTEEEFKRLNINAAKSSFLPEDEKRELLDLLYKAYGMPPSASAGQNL
Kind of assay: Binding affinity towards Adenosine deaminase.

`OCC1OC(n2cnc3c2N=CCC[C@H]3O)C[C@H]1O` (single isomer, unassigned) displayed a Ki of 2.5 pM.
In the case of `OCC1OC(n2cnc3c2N=CCC[C@H]3O)[C@@H](O)[C@H]1O` (single isomer, unassigned) [CONFORMYCIN], affinity was put at a Ki of 10 pM.

One may read the Ki as a dissociation constant, usually derived from enzyme kinetics or from competition with a known ligand. A low value points to tighter binding.
